Values quoted from earlier work in patent publication US20250375404A1, “AN ORODISPERSIBLE PHARMACEUTICAL COMPOSITION OF BACLOFEN AND ITS PROCESS OF PREPARATION” (NOVUMGEN LIMITED, priority 2022, published 2025).

Settings: in vivo

Absorption from the gastro-intestinal tract: rapidly and completely absorbed
Compound: NCC(CC(=O)O)c1ccc(Cl)cc1 (stereo not shown) [Baclofen]
